The results in this text go back to US20160166488A1, “MEDICAMENT” (SYMRISE AG, priority 2013, published 2016).

The subject of the assay is MMP-1. Nature of the assay: Inhibition of MMP-1 synthesis: release of MMP-1 from dermal fibroblasts as an effect of UV radiation (Amersham kit RPN2610). It counts as cell-based. The settings on record: dermal fibroblast culture, test product conc. 0.001 % w/v, incubation 36 h at 37° C., threefold determination; for MMP with UVA: with UVA (method text: UVB radiation 50 mJ/cm^2). The protocol: Inhibition of MMP-1 Synthesis
The capacity of the test substances to alleviate the toxic effect of UVA radiation was investigated. A culture of dermal fibroblasts was used as an in vitro system, and the release of MMP-1 from these fibroblasts as an effect of UV radiation was determined. In order to carry out the experiment, a fibroblast culture with fetal calf serum was prepared and inoculated with the test substances 2 days thereafter. After incubation for 36 h at 37° C. with a CO2 level of 5 vol %, the nutrient medium was replaced with an electrolyte solution, and the fibroblasts were damaged with a specified dose of UVB radiation (50 mJ/cm^2). Determination of MMP was carried out with a kit that is commercially available from the firm Amersham under the name RPN2610. The amount of MMP is given in ng/ml from a test series with threefold determination.

`NCCC(=O)N[C@@H](Cc1cnc[nH]1)C(=O)O` [L-carnosine]: the “MMP with UVA” value is 101 ± 17 rel. % and the “MMP without UVA” value was 22 ± 5 rel. %.
The corresponding values for `C[N+](C)(C)C[C@H](O)CC(=O)O.[Cl-]` [Carnitine*HCl] are 118 ± 21 rel. % and 24 ± 7 rel. %.
In the same order, the values of `CCCCC(CC)COC(=O)C(C#N)=C(c1ccccc1)c1ccccc1` (centres unmarked) [Octocrinyl, 2-cyano-3,3-phenylcinnamic acid-2-ethylhexyl ester] are 100 ± 20 rel. % and 17 ± 7 rel. %.
The corresponding values for `CCCCCCOC(=O)c1ccccc1C(=O)c1ccc(N(CC)CC)cc1O` [Uvinul A, 2-(4-diethylamino-2-hydroxybenzoyl)-benzoic acid hexyl ester] are 99 ± 12 rel. % and 17 ± 3 rel. %.
